# Laboratory results taken from US20220089638A1, “DITHIOCARBAMATE STAPLED PEPTIDES AND METHODS OF MAKING AND USE THEREOF” (UNIVERSITY OF MARYLAND, BALTIMORE, priority 2019, published 2022).
# Where a SMILES comes first, the peptide text is derived from it. Bridges are numbered along the chain shown (N, C = ends). [ ]: non-standard residue; d: D form. S5 = C=CCCC[C@](C)(N)C(=O)O
# Experiments:
# [1] = Circular dichroism spectroscopy, percent α-helix; format: physicochemical; conditions: CD spectroscopy
# Source text: Circular Dichroism (CD) Spectroscopy.
# [2] = tested on: HCT116 p53^−/−; assay: Cell viability assay (CCK8), HCT116 p53-/-; format: cell-based, human; conditions: 100 μM
# Protocol: Cell Viability Assay. […] The absorbance at 450 nm was then measured followed by the addition of CCK8 kit, and percent cell viability was calculated on the ratio of the A450 of sample wells versus reference wells.
# [3] = tested on: p53, MDM2 and p21 in HCT116 p53^+/+ cells; assay: Western blot analysis of MDM2, p21 and p53 expression; format: cell-based, human; conditions: 8 h after treatment, 10, 20, 30 μM
# Protocol: Western Blot Analysis. […] The cells were lysed (20 mM Tris-HCl pH 8.0, 0.8% SDS, 1 mM PMSF, 1 U mL^−1 benzonase nuclease) and the crude lysates were clarified by brief centrifugation and total protein concentration was determined by using the Pierce BCA protein assay. Aliquots containing 5 μg of total protein were run on 4-12% Bis-Tris polyacrylamide gels (Invitrogen).
# [4] = tested on: HCT116 p53^+/+ cells; assay: Cell apoptosis assay (annexin V-FITC/PI flow cytometry), HCT116 p53+/+; format: cell-based, human; conditions: 10, 20, or 30 μM
# Protocol: (§1) Cell Apoptosis Assay. […] No treatment controls were established. Culture medium that may contain detached cells was collected, and attached cells were trypsinized. After centrifugation and removal of the supernatants, cells were resuspended in 300 μL of 1×binding buffer which was then added to 5 μL of annexin V-FITC and incubated at room temperature for 15 min. After addition of 10 μL of PI, the cells were incubated at room temperature for another 10 min in the dark. The stained cells were analyzed by a flow cytometer (BD-FACSVerse).
# [5] = tested on: HCT116 p53^−/− cells; assay: Cell apoptosis assay (annexin V-FITC/PI flow cytometry), HCT116 p53-/-; format: cell-based, human; conditions: identical treatment conditions, 10, 20, or 30 μM
# Protocol: as §1
# [6] = tested on: HCT116 p53^+/+ cells; assay: Cellular uptake by confocal microscopy; format: cell-based, human; conditions: FITC-labeled peptide, 20 μM, 4 h
# Protocol: Cellular uptake of ^DTCPMI. […] Cells were then incubated with 20 μM FITC-^DTCPMI Ctrl. or FITC-^DTCPMI for 4 h. Cells were washed with Dulbecco's phosphate buffered saline, fixed with 4% (wt/vol) paraformaldehyde, finally incubated by DAPI to stain the cell nucleus. Imaged using an LSM 510 Zeiss Axiovert 200M (v4.0) confocal microscope. Images were analyzed using an LSM image browser.
# [7] = Comparison of solubility between DTC and hydrocarbon link (OD 600 nm in PBS); format: physicochemical; conditions: PBS buffer, 2-fold serial dilution from 20 mg/ml, OD at 600 nm
# Protocol: Comparison of Solubility between DTC and Hydrocarbon link. […] OD values were measured at 600 nm on a Biotech Synergy 4 plate reader. PBS was set as blank control.
α-helix (%) ([1]; Table 3),α-helix (%) ([1]; Table 7),solubility [7] [µg/mL],SMILES,cell viability of HCT116 p53-/- cells at high concentration [2],"induction of p53, MDM2 and p21 (Western blotting) [3]",induction of apoptosis of HCT116 p53+/+ cells (FACS) [4],apoptosis of HCT116 p53-/- cells (FACS) [5],intracellular localization / cellular uptake (confocal microscopy) [6]
76,62.2,,CC(=O)N[C@H](C(=O)N[C@@H](CO)C(=O)N[C@@H](Cc1ccccc1)C(=O)N[C@H]1CCCCNC(=S)SC[C@@H](C(=O)N[C@@H](CC(C)C)C(=O)N[C@@H](CC(C)C)C(=O)N[C@@H](CO)C(=O)N[C@@H](CCCNC(=N)N)C(N)=O)NC(=O)[C@H](Cc2c[nH]c3ccccc23)NC(=O)[C@H](Cc2ccc(O)cc2)NC(=O)[C@H](CCC(N)=O)NC1=O)[C@@H](C)O [^DTCPMI],significantly reduced cell viability,"dose-dependent induction of p53, MDM2 and p21",dose-dependent induction of apoptosis,no obvious apoptosis,"diffused intracellular localization, demonstrating efficient cellular uptake"
,,≥ 300,CC(=O)N[C@H](C(=O)N[C@@H](CO)C(=O)N[C@@H](Cc1ccccc1)C(=O)N[C@@]1(C)CCCC=CCCC[C@@](C)(C(=O)N[C@@H](CC(C)C)C(=O)N[C@@H](CC(C)C)C(=O)N[C@@H](CO)C(=O)N[C@@H](CCCNC(=N)N)C(N)=O)NC(=O)[C@H](Cc2c[nH]c3ccccc23)NC(=O)[C@H](Cc2ccc(O)cc2)NC(=O)[C@H](CCC(N)=O)NC1=O)[C@@H](C)O [^HCPMI] (Ac-TSF[S5]QYW[S5]LLSR-NH2; staple 4-8),,,,,
